Data on seven molecules can be found in patent US10004701B2, “Methods and compositions for treating infection” (UNIVERSITY OF ROCHESTER, priority 2012, dated 2018).

Common to all, as to experiment: AK assay 384-well format, Prestwick library screening
The test system of one assay is E. faecium. The class given is cell-based, Enterococcus faecium. The settings on record: Enterococcus faecium, 3 h, 50 μM final drug concentration.
The test system of assay [1] is S. aureus strain USA300-0114. Type of assay: cell-based, Staphylococcus aureus. The settings on record: Staphylococcus aureus, USA300, 3 h, 50 μM final drug concentration.
The test system of the next assay is K. pneumoniae. Type of assay: cell-based, Klebsiella pneumoniae. The settings on record: Klebsiella pneumoniae, 3 h, 50 μM final drug concentration.
The test system of assay [2] is A. baumannii strain 98-37-09. The class given is cell-based, Acinetobacter baumannii. The settings on record: Acinetobacter baumannii, 983709, 3 h, 50 μM final drug concentration.
The test system of a further assay is P. aeruginosa. Type of assay: cell-based, Pseudomonas aeruginosa. The settings on record: Pseudomonas aeruginosa, 3 h, 50 μM final drug concentration.
For a further assay, the system named is E. cloacae. The class given is cell-based, Enterobacter cloacae. The settings on record: Enterobacter cloacae, 3 h, 50 μM final drug concentration.
For the next assay, the system named is E. coli. The class given is cell-based, Escherichia coli. The settings on record: Escherichia coli, 3 h, 50 μM final drug concentration.

Structures can show the parent of a compound that is named as a salt. Where two headings read alike, the source gives them in different places.

On to `CCc1cccc(CC)c1NC(=O)CN(CC(=O)O)CC(=O)O` [Etifenin], for which the fold induction at 50 µM is 0.9 with E. faecium (planktonic E. faecium, cutoff for positive-scoring molecules 3-fold increase, read-out: AK-based Prestwick Library Screening Results, E. faecium (increase in extracellular AK activity)); 0.5 in assay [1] (planktonic S. aureus, cutoff for positive-scoring molecules 3-fold increase, read-out: AK-based Prestwick Library Screening Results, S. aureus (increase in extracellular AK activity)); 0.8 with K. pneumoniae (planktonic K. pneumoniae, cutoff for positive-scoring molecules 3-fold increase, read-out: AK-based Prestwick Library Screening Results, K. pneumoniae (increase in extracellular AK activity)); 0.9 in assay [2] (planktonic A. baumannii, cutoff for positive-scoring molecules 3-fold increase, read-out: AK-based Prestwick Library Screening Results, A. baumannii (increase in extracellular AK activity)); 0.9 with P. aeruginosa (planktonic P. aeruginosa, cutoff for positive-scoring molecules 3-fold increase, read-out: AK-based Prestwick Library Screening Results, P. aeruginosa (increase in extracellular AK activity)); 1 in the assay with E. cloacae (planktonic E. cloacae, cutoff for positive-scoring molecules 3-fold increase, read-out: AK-based Prestwick Library Screening Results, E. cloacae (increase in extracellular AK activity)). In addition, the fold induction at 50 µM in the assay on E. coli (planktonic E. coli, cutoff for positive-scoring molecules 3-fold increase, read-out: AK-based Prestwick Library Screening Results, E. coli (increase in extracellular AK activity)) was determined as 1.1.

`CCNCC(O)c1cccc(O)c1` (stereo not shown) [Etilefrine hydrochloride]: the fold induction at 50 µM in the assay with E. faecium (planktonic E. faecium, positive cutoff 3-fold increase, read-out: AK-based Prestwick library screening result, E. faecium (fold increase in extracellular AK activity)) was found to be 1; in assay [1] (planktonic S. aureus, positive cutoff 3-fold increase, read-out: AK-based Prestwick library screening result, S. aureus (fold increase in extracellular AK activity)), 1.1; in the assay on K. pneumoniae (planktonic K. pneumoniae, positive cutoff 3-fold increase, read-out: AK-based Prestwick library screening result, K. pneumoniae (fold increase in extracellular AK activity)), 0.8; in assay [2] (planktonic A. baumannii, positive cutoff 3-fold increase, read-out: AK-based Prestwick library screening result, A. baumannii (fold increase in extracellular AK activity)), 1.4; in the assay with P. aeruginosa (planktonic P. aeruginosa, positive cutoff 3-fold increase, read-out: AK-based Prestwick library screening result, P. aeruginosa (fold increase in extracellular AK activity)), 1.1; with E. cloacae (planktonic E. cloacae, positive cutoff 3-fold increase, read-out: AK-based Prestwick library screening result, E. cloacae (fold increase in extracellular AK activity)), 1.5. Also, the fold induction at 50 µM with E. coli (planktonic E. coli, positive cutoff 3-fold increase, read-out: AK-based Prestwick library screening result, E. coli (fold increase in extracellular AK activity)) stood at 1.

Regarding `CCc1cccc2c3c([nH]c12)C(CC)(CC(=O)O)OCC3` (stereo not shown) [Etodolac], the fold induction at 50 µM with E. faecium (planktonic E. faecium, 384-well, cutoff for positive-scoring molecules 3-fold increase, read-out: AK-based Prestwick Library Screening Results: E. faecium (increase in extracellular AK activity)) was found to be 1.1; in assay [1] (planktonic S. aureus, 384-well, cutoff for positive-scoring molecules 3-fold increase, read-out: AK-based Prestwick Library Screening Results: S. aureus (increase in extracellular AK activity)), 1; with K. pneumoniae (planktonic K. pneumoniae, 384-well, cutoff for positive-scoring molecules 3-fold increase, read-out: AK-based Prestwick Library Screening Results: K. pneumoniae (increase in extracellular AK activity)), 1.3; in assay [2] (planktonic A. baumannii, 384-well, cutoff for positive-scoring molecules 3-fold increase, read-out: AK-based Prestwick Library Screening Results: A. baumannii (increase in extracellular AK activity)), 1.4; with P. aeruginosa (planktonic P. aeruginosa, 384-well, cutoff for positive-scoring molecules 3-fold increase, read-out: AK-based Prestwick Library Screening Results: P. aeruginosa (increase in extracellular AK activity)), 1.5; with E. cloacae (planktonic E. cloacae, 384-well, cutoff for positive-scoring molecules 3-fold increase, read-out: AK-based Prestwick Library Screening Results: E. cloacae (increase in extracellular AK activity)) it was 1.2. For the same molecule, in the assay on E. coli (planktonic E. coli, 384-well, […], read-out: AK-based Prestwick Library Screening Results: E. coli (increase in extracellular AK activity)), the fold induction at 50 µM stood at 1.2.

With `Cn1c(=O)c2c(ncn2CCO)n(C)c1=O` [Etofylline], the fold induction at 50 µM with E. faecium (384-well format, cutoff for positive-scoring molecules 3-fold increase, read-out: AK-based Prestwick Library Screening Results, E. faecium (increase in extracellular AK activity)) was 1; in assay [1] (384-well format, cutoff for positive-scoring molecules 3-fold increase, read-out: AK-based Prestwick Library Screening Results, S. aureus (increase in extracellular AK activity)), 0.8; with K. pneumoniae (384-well format, cutoff for positive-scoring molecules 3-fold increase, read-out: AK-based Prestwick Library Screening Results, K. pneumoniae (increase in extracellular AK activity)), 0.6; in assay [2] (384-well format, cutoff for positive-scoring molecules 3-fold increase, read-out: AK-based Prestwick Library Screening Results, A. baumannii (increase in extracellular AK activity)) it was 0.8; in the assay on P. aeruginosa (384-well format, cutoff for positive-scoring molecules 3-fold increase, read-out: AK-based Prestwick Library Screening Results, P. aeruginosa (increase in extracellular AK activity)) it was 0.7; in the assay with E. cloacae (384-well format, cutoff for positive-scoring molecules 3-fold increase, read-out: AK-based Prestwick Library Screening Results, E. cloacae (increase in extracellular AK activity)), 0.9. Further, the fold induction at 50 µM in the assay on E. coli (384-well format, cutoff for positive-scoring molecules 3-fold increase, read-out: AK-based Prestwick Library Screening Results, E. coli (increase in extracellular AK activity)) is 0.8.

On to `COc1cc([C@@H]2c3cc4c(cc3[C@@H](O[C@@H]3O[C@@H]5CO[C@@H](C)O[C@H]5[C@H](O)[C@H]3O)[C@H]3COC(=O)[C@H]23)OCO4)cc(OC)c1O` [Etoposide], for which the fold induction at 50 µM was found to be 1.1 in the assay with E. faecium (planktonic, cutoff for positive 3-fold increase, read-out: AK-based Prestwick Library Screening Results, E. faecium (fold increase in extracellular AK activity)); 1.4 in assay [1] (planktonic, cutoff for positive 3-fold increase, read-out: AK-based Prestwick Library Screening Results, S. aureus (fold increase in extracellular AK activity)); 1 in the assay on K. pneumoniae (planktonic, cutoff for positive 3-fold increase, read-out: AK-based Prestwick Library Screening Results, K. pneumoniae (fold increase in extracellular AK activity)); 1.2 in assay [2] (planktonic, cutoff for positive 3-fold increase, read-out: AK-based Prestwick Library Screening Results, A. baumannii (fold increase in extracellular AK activity)); 1 in the assay on P. aeruginosa (planktonic, cutoff for positive 3-fold increase, read-out: AK-based Prestwick Library Screening Results, P. aeruginosa (fold increase in extracellular AK activity)); 1.4 with E. cloacae (planktonic, cutoff for positive 3-fold increase, read-out: AK-based Prestwick Library Screening Results, E. cloacae (fold increase in extracellular AK activity)). In the assay on E. coli (planktonic, […], read-out: AK-based Prestwick Library Screening Results, E. coli (fold increase in extracellular AK activity)), the fold induction at 50 µM is 1.2.

`CC1CC(OC(=O)C(O)c2ccccc2)CC(C)(C)N1C` (stereo not shown) [Eucatropine hydrochloride]: the fold induction at 50 µM was 1.1 in the assay with E. faecium (cutoff for positive-scoring molecules 3-fold increase, read-out: AK-based Prestwick Library Screening Results, E. faecium (fold increase in extracellular AK activity)); 1.3 in assay [1] (cutoff for positive-scoring molecules 3-fold increase, read-out: AK-based Prestwick Library Screening Results, S. aureus (fold increase in extracellular AK activity)); 0.9 in the assay with K. pneumoniae (cutoff for positive-scoring molecules 3-fold increase, read-out: AK-based Prestwick Library Screening Results, K. pneumoniae (fold increase in extracellular AK activity)); 1.1 in assay [2] (cutoff for positive-scoring molecules 3-fold increase, read-out: AK-based Prestwick Library Screening Results, A. baumannii (fold increase in extracellular AK activity)); 1.1 in the assay on P. aeruginosa (cutoff for positive-scoring molecules 3-fold increase, read-out: AK-based Prestwick Library Screening Results, P. aeruginosa (fold increase in extracellular AK activity)); 1.6 in the assay on E. cloacae (cutoff for positive-scoring molecules 3-fold increase, read-out: AK-based Prestwick Library Screening Results, E. cloacae (fold increase in extracellular AK activity)). In the assay on E. coli (cutoff for positive-scoring molecules 3-fold increase, read-out: AK-based Prestwick Library Screening Results, E. coli (fold increase in extracellular AK activity)), the fold induction at 50 µM was determined as 1.2.

As to `COc1c2ccoc2nc2c(OC)c(OCC(O)C(C)(C)O)ccc12` (stereo not shown) [Evoxine], the fold induction at 50 µM in the assay on E. faecium (planktonic, cutoff for positive-scoring molecules 3-fold increase, read-out: AK-based Prestwick Library Screening Results, E. faecium (fold increase in extracellular AK activity)) was 0.8; in assay [1] (planktonic, cutoff for positive-scoring molecules 3-fold increase, read-out: AK-based Prestwick Library Screening Results, S. aureus (fold increase in extracellular AK activity)), 0.6; with K. pneumoniae (planktonic, cutoff for positive-scoring molecules 3-fold increase, read-out: AK-based Prestwick Library Screening Results, K. pneumoniae (fold increase in extracellular AK activity)), 0.7; in assay [2] (planktonic, cutoff for positive-scoring molecules 3-fold increase, read-out: AK-based Prestwick Library Screening Results, A. baumannii (fold increase in extracellular AK activity)), 0.7; in the assay on P. aeruginosa (planktonic, cutoff for positive-scoring molecules 3-fold increase, read-out: AK-based Prestwick Library Screening Results, P. aeruginosa (fold increase in extracellular AK activity)) it was 0.8; in the assay on E. cloacae (planktonic, cutoff for positive-scoring molecules 3-fold increase, read-out: AK-based Prestwick Library Screening Results, E. cloacae (fold increase in extracellular AK activity)) it was 1.1. Further, in the assay on E. coli (planktonic, cutoff for positive-scoring molecules 3-fold increase, read-out: AK-based Prestwick Library Screening Results, E. coli (fold increase in extracellular AK activity)), the fold induction at 50 µM was determined as 0.7.
